Measurements as given in patent US10604514B2, “6-(5-membered heteroaryl)isoquinolin-3-yl carboxamides and preparation and use thereof” (Samumed, LLC, priority 2017, dated 2020).
Read-outs that look alike come from different tables or passages of the source.

Key:
[1] = system: Tau phosphorylation at Ser396 (pSer396), SH-SY5Y cells; assay: Tau phosphorylation at Ser396 (pSer396) in SH-SY5Y cells, ELISA/western blot; format: cell-based, human; settings: SH-SY5Y cells, overnight (16-18 h), read-out: pSer396 Tau EC50;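 note: cell lysates probed for reduced Tau pSer396 via ELISA (colorimetric) or western blot (chemiluminescence), both with one shared pSer396 antibody, EC50 for lowering phosphorylation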
[2] = system: Wnt activity (Sp5-Luc reporter in SW480 colon carcinoma cells); assay: Wnt activity screening assay (Sp5-Luc reporter gene assay); format: cell-based, human; settings: for EC50: Sp5-Luc reporter, SW480 cells, 36 to 48 hours; for inhibition at 10 µM: SW480, read-out: percent inhibition at 10 μM
Summary of the method: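 SW480 cells stably carrying an Sp5 promoter (eight TCF/LEF sites)-firefly luciferase reporter were plated in DMEM with 1% FBS and treated with a 10-point, 1:3 dilution series from 10 μM (0.1% DMSO) for 36 to 48 h at 37° C. Luminescence was normalized to DMSO controls, and EC50 came from four-parameter nonlinear regression.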

[3] = system: SW480 colon carcinoma cells; assay: Cell viability assay (CellTiter-Glo) in SW480 cells; format: cell-based, human; settings: for EC50: cell viability, SW480 cells, four days, CellTiter-Glo; for inhibition at 10 µM: SW480, read-out: percent inhibition at 10 μM;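 for all read-outs here: SW480 cells stably carrying an Sp5-luciferase TCF/LEF reporter, luminescent ATP signal as viability measure, DMSO-treated cells as control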
DYRK1A kinase = DYRK1A kinase (Homo sapiens (Human), UniProt Q13627); assay: DYRK1A kinase assay (Ser/Thr 18 peptide Z-lyte, FRET); settings: DYRK1A kinase; method text calls the value IC50
[4] = system: LL29 cells (primary human fibroblasts derived from IPF patients), α-smooth muscle actin; assay: Inhibition of fibrotic process: αSMA in TGF-β1-treated primary human fibroblasts from IPF patients (LL29 cells); format: cell-based; settings: for EC50: % αSMA-positive LL29 cells, TGF-β1 20 ng/mL, 4 days; for inhibition at 10 µM: read-out: percent inhibition at 10 μM
Summary of the method: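 IPF-patient lung fibroblasts (LL29) were stimulated with TGF-β1 (20 ng/mL) in 1% FBS medium with compound (11-point 1:2 series, 0.1% DMSO) for 4 days at 37 °C. Fixed cells were immunostained for αSMA and imaged, excluding SYTOX-positive dead cells. The % αSMA-positive cells was normalized to TGF-β1/DMSO control wells.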

IL-6 = IL-6 inhibition in LPS-stimulated human peripheral blood mononuclear cells (HTRF); format: cell-based; settings: for EC50: IL-6, LPS-stimulated huPBMCs, HTRF; for inhibition at 10 µM: read-out: percent value in parentheses below EC50 >10
Summary of the method: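 Fresh human PBMCs (5000 cells/well, 1% FBS RPMI) preincubated with compound (10-point 1:3 series from 10 μM, 0.25% DMSO) 2 h at 37 °C, then stimulated with 50 ng/mL E. coli LPS for 22 h. IL-6 by HTRF 665/620 ratio; DMSO-normalized, EC50 from 4-parameter fit.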

GSK3β kinase = GSK3β kinase (Homo sapiens (Human), UniProt P49841); assay: GSK3β kinase assay (Ser/Thr 09 peptide Z-lyte, FRET); format: biochemical; settings: method text calls the value IC50;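 note: Coumarin/fluorescein emission ratio converted to percent phosphorylation against unphosphorylated (0%) and phosphorylated (100%) controls, 1 h compound incubation at room temperature, 11-point threefold dilutions from 10 µM, run in duplicate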
Sequence of GSK3β kinase (P49841 whole entry): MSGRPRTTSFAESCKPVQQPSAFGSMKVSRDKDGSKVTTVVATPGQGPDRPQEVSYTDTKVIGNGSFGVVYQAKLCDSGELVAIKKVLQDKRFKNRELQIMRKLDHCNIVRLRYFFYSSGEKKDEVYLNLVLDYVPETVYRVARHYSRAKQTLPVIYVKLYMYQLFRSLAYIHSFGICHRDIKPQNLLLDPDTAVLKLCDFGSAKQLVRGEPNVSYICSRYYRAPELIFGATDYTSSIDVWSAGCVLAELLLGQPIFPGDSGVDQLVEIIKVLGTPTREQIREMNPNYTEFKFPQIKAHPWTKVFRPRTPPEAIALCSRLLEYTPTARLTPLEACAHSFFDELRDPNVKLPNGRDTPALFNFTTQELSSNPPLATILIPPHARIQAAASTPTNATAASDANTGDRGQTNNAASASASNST

Row | Structure (SMILES) | EC50 (DYRK1A kinase) | EC50 (GSK3β kinase) | EC50 ([1]; Homo sapiens) | EC50 ([2]; Homo sapiens) | EC50 ([3]; Homo sapiens, 96 h) | EC50 (IL-6; Homo sapiens, PBMC) | EC50 [1] | EC50 [2] | EC50 [3] | EC50 [4] | percent inhibition of IL-6 at 10 µM (IL-6) | EC50 (IL-6) | EC50 ([4]; Homo sapiens, Fibroblast, 96 h) | inhibition at 10 µM ([2]; Homo sapiens) | inhibition at 10 µM ([3]; Homo sapiens) | inhibition at 10 µM (IL-6; Homo sapiens, PBMC) | inhibition at 10 µM ([4]; Homo sapiens, Fibroblast)
1 | Cc1ncc(-c2ccc3cnc(NC(=O)C4CCN(CC(C)(F)F)CC4)cc3c2)o1 [Compound 20, 1-(2,2-Difluoropropyl)-N-(6-(2-methyloxazol-5-yl)isoquinolin-3-yl) piperidine-4-carboxamide] | 5 nM | 41 nM |  |  |  |  | 524 nM | 2640 nM | 3070 nM | 480 nM | (13.4%) | > 10000 nM |  |  |  |  | 
2 | Cc1nnc(-c2ccc3cnc(NC(=O)[C@H]4CC[C@H](N5CCOCC5)CC4)cc3c2)s1 [Compound 23, trans-N-(6-(5-Methyl-1,3,4-thiadiazol-2-yl)isoquinolin-3-yl)-4-morpholinocyclohexane-1-carboxamide] | 4 nM | 17 nM | 161 nM | 725 nM | 2120 nM | 9370 nM |  |  |  |  |  |  | 489 nM |  |  |  | 
3 | Cc1nnc(-c2ccc3cnc(NC(=O)C4CCNCC4)cc3c2)s1 [Compound 24, N-(6-(5-Methyl-1,3,4-thiadiazol-2-yl)isoquinolin-3-yl)piperidine-4-carboxamide] | 7 nM | 30 nM | 127 nM | 1190 nM | 3640 nM | 8810 nM |  |  |  |  |  |  | 573 nM |  |  |  | 
4 | Cc1nnc(-c2ccc3cnc(NC(=O)C4(F)CCN(C)CC4)cc3c2)s1 [Compound 26, 4-Fluoro-1-methyl-N-(6-(5-methyl-1,3,4-thiadiazol-2-yl)isoquinolin-3-yl) piperidine-4-carboxamide] | 38 nM | 524 nM | 167 nM | 6950 nM | 8530 nM | > 10000 nM |  |  |  |  |  |  | > 10000 nM |  |  | 5.6% | 48.4%
5 | Cc1nnc(-c2ccc3cnc(NC(=O)C4CCN(CC(C)(F)F)CC4)cc3c2)s1 [Compound 28, 1-(2,2-Difluoropropyl)-N-(6-(5-methyl-1,3,4-thiadiazol-2-yl)isoquinolin-3-yl)piperidine-4-carboxamide] | 4 nM | 8 nM | 89 nM | 1110 nM | > 10000 nM | > 10000 nM |  |  |  |  |  |  | 448 nM |  | 37.8% | 4.3% | 
6 | Cc1nnc(-c2ccc3cnc(NC(=O)N4CCC(N(C)C)CC4)cc3c2)s1 [Compound 31, 4-(Dimethylamino)-N-(6-(5-methyl-1,3,4-thiadiazol-2-yl)isoquinolin-3-yl) piperidine-1-carboxamide] | 24 nM | 117 nM | 386 nM | 2060 nM | 3800 nM | > 10000 nM |  |  |  |  |  |  | 3710 nM |  |  | 19.8% | 
7 | Cc1nnc(-c2ccc3cnc(NC(=O)N4CC[C@H](NC(C)C)[C@@H](F)C4)cc3c2)s1 [Compound 35, (3S,4S)-3-Fluoro-4-(isopropylamino)-N-(6-(5-methyl-1,3,4-thiadiazol-2-yl)isoquinolin-3-yl)piperidine-1-carboxamide] | 26 nM | 84 nM | 543 nM | 3340 nM | 4550 nM | > 10000 nM |  |  |  |  |  |  | 1020 nM |  |  | 9.6% | 

Second part, led by results:

Row | EC50 (DYRK1A kinase) | EC50 (GSK3β kinase) | EC50 ([1]; Homo sapiens) | EC50 ([2]; Homo sapiens) | EC50 ([3]; Homo sapiens, 96 h) | EC50 (IL-6; Homo sapiens, PBMC) | Structure (SMILES) | EC50 [1] | EC50 [2] | EC50 [3] | EC50 [4] | percent inhibition of IL-6 at 10 µM (IL-6) | EC50 (IL-6) | EC50 ([4]; Homo sapiens, Fibroblast, 96 h) | inhibition at 10 µM ([2]; Homo sapiens) | inhibition at 10 µM ([3]; Homo sapiens) | inhibition at 10 µM (IL-6; Homo sapiens, PBMC) | inhibition at 10 µM ([4]; Homo sapiens, Fibroblast)
8 | 6 nM | 35 nM | 566 nM | 657 nM | 1060 nM | 9370 nM | Cc1nnc(-c2ccc3cnc(NC(=O)[C@H]4CC[C@H](N)CC4)cc3c2)s1 [Compound 21, trans-4-Amino-N-(6-(5-methyl-1,3,4-thiadiazol-2-yl)isoquinolin-3-yl) cyclohexane-1-carboxamide] |  |  |  |  |  |  | 340 nM |  |  |  | 
9 | 14 nM | 313 nM | 430 nM | > 10000 nM | > 10000 nM | > 10000 nM | Cc1nnc(-c2ccc3cnc(NC(=O)C4(F)CCNCC4)cc3c2)s1 [Compound 25, 4-Fluoro-N-(6-(5-methyl-1,3,4-thiadiazol-2-yl)isoquinolin-3-yl)piperidine-4-carboxamide] |  |  |  |  |  |  | 3870 nM | 34.3% | 40.3% | 8% | 
10 | 6 nM | 11 nM | 104 nM | 927 nM | 2090 nM | > 10000 nM | Cc1nnc(-c2ccc3cnc(NC(=O)C4CCN(CC(F)F)CC4)cc3c2)s1 [Compound 27, 1-(2,2-Difluoroethyl)-N-(6-(5-methyl-1,3,4-thiadiazol-2-yl)isoquinolin-3-yl)piperidine-4-carboxamide] |  |  |  |  |  |  | 235 nM |  |  | 2.8% | 
11 | 18 nM | 337 nM | 3400 nM | > 10000 nM | > 10000 nM | > 10000 nM | Cc1nnc(-c2ccc3cnc(NC(=O)N(C)C4CCN(C)CC4)cc3c2)s1 [Compound 29, 1-Methyl-3-(6-(5-methyl-1,3,4-thiadiazol-2-yl)isoquinolin-3-yl)-1-(1-methylpiperidin-4-yl)urea] |  |  |  |  |  |  | > 10000 nM | 45.6% | 28.2% | 6% | 3.2%
12 | 27 nM | 99 nM | 453 nM | 3310 nM | 6840 nM | > 10000 nM | CNC1CCN(C(=O)Nc2cc3cc(-c4nnc(C)s4)ccc3cn2)CC1 [Compound 30, N-(6-(5-Methyl-1,3,4-thiadiazol-2-yl)isoquinolin-3-yl)-4-(methylamino) piperidine-1-carboxamide] |  |  |  |  |  |  | 4110 nM |  |  | 9.3% | 
13 | 17 nM | 210 nM | 891 nM | > 10000 nM | > 10000 nM | > 10000 nM | Cc1nnc(-c2ccc3cnc(NC(=O)N4CCC(N(C)CC(F)F)CC4)cc3c2)s1 [Compound 32, 4-((2,2-Difluoroethyl)(methyl)amino)-N-(6-(5-methyl-1,3,4-thiadiazol-2-yl)isoquinolin-3-yl)piperidine-1-carboxamide] |  |  |  |  |  |  | 771 nM | 30.5% | 8.3% | 10.1% | 
14 | 9 nM | 23 nM | 321 nM | 3500 nM | 4630 nM | 9320 nM | Cc1nnc(-c2ccc3cnc(NC(=O)N4CC[C@H](N)[C@@H](F)C4)cc3c2)s1 [Compound 33, (3S,4S)-4-amino-3-fluoro-N-(6-(5-methyl-1,3,4-thiadiazol-2-yl)isoquinolin-3-yl)piperidine-1-carboxamide] |  |  |  |  |  |  | > 10000 nM |  |  |  | 49.9%
15 | 15 nM | 46 nM | 456 nM | 3360 nM | 3760 nM | > 10000 nM | Cc1nnc(-c2ccc3cnc(NC(=O)N4CC[C@H](N(C)C)[C@@H](F)C4)cc3c2)s1 [Compound 34, (3S,4S)-4-(dimethylamino)-3-fluoro-N-(6-(5-methyl-1,3,4-thiadiazol-2-yl)isoquinolin-3-yl)piperidine-1-carboxamide] |  |  |  |  |  |  | > 10000 nM |  |  | 7% | 48.5%
16 | 12 nM | 79 nM | 843 nM | 3740 nM | 5700 nM | > 10000 nM | Cc1nnc(-c2ccc3cnc(NC(=O)N4CCOCC4)cc3c2)s1 [Compound 36, N-(6-(5-Methyl-1,3,4-thiadiazol-2-yl)isoquinolin-3-yl)morpholine-4-carboxamide] |  |  |  |  |  |  | 5200 nM |  |  | 4% | 
